Data reported in ChEMBL document CHEMBL3758105 (J Med Chem, 2016).
pIC50, pKi: −log10 of the molar value.

Columns and labels:
[1] = Drug metabolism in cynomolgus monkey urine assessed as (2S,5S)-5-((5-(6-((4-Fluoro-3-methoxybenzyl)carbamoyl)-2-methylpyrimidin-4-yl)-2H-tetrazol-2-yl)methyl)-1,4-dioxane-2-carboxylic acid formation; type: ADME, tissue-based, Macaca fascicularis
[2] = system: Hepatocyte; test: Drug metabolism in human hepatocytes assessed as glucuronidation; type: ADME, cell-based
[3] = Drug metabolism in cynomolgus monkey hepatocytes assessed as demethylation; type: ADME, cell-based, Macaca fascicularis, Hepatocyte
[4] = Drug metabolism in cynomolgus monkey hepatocytes assessed as glucuronidation; type: ADME, cell-based, Macaca fascicularis, Hepatocyte
[5] = target: Collagenase 3 (Homo sapiens, UniProt P45452); test: Inhibition of full length human recombinant MMP13 using MCA-Arg-Pro-Leu-Gly-Leu-Dpa-Ala-Arg-Glu-Arg-NH2 as substrate preincubated for 60 mins followed by substrate addition by fluorescence assay
[6] = system: Hepatocyte; test: Drug metabolism in human hepatocytes assessed as demethylation; type: ADME, cell-based
[7] = target: Cytochrome P450 2C9 (Homo sapiens, UniProt P11712); test: Inhibition of CYP2C9 in human liver microsomes assessed as reduction of diclofenac metabolism after 8 mins; type: ADME
[8] = Clearance in Sprague-Dawley rat at 1 mg/kg, iv administered as bolus dose by LC-MS/MS analysis; type: ADME, organism-based; conditions: in vivo
[9] = Oral bioavailability in Sprague-Dawley rat at 1 mg/kg; type: ADME, organism-based; conditions: in vivo
[10] = system: Cynomolgus monkey; test: Drug metabolism in cynomolgus monkey assessed as (2S,5S)-5-((5-(6-((4-Fluoro-3-methoxybenzyl)carbamoyl)-2-methylpyrimidin-4-yl)-2H-tetrazol-2-yl)methyl)-1,4-dioxane-2-carboxylic acid formation at 1 mg/kg, po; type: ADME, organism-based, Macaca fascicularis; conditions: in vivo
[11] = Clearance in beagle dog at 1 mg/kg, po and iv; type: ADME, organism-based, Canis lupus familiaris; conditions: in vivo
[12] = system: Hepatocyte; test: Drug metabolism in human hepatocytes assessed as (2S,5S)-5-((5-(6-((4-Fluoro-3-methoxybenzyl)carbamoyl)-2-methylpyrimidin-4-yl)-2H-tetrazol-2-yl)methyl)-1,4-dioxane-2-carboxylic acid formation; type: ADME, cell-based
[13] = target: Stromelysin-1 (Homo sapiens, UniProt P08254); test: Inhibition of MMP3 (unknown origin) catalytic domain using MCA-Arg-Pro-Leu-Gly-Leu-Dpa-Ala-Arg-Glu-Arg-NH2 as substrate preincubated for 60 mins followed by substrate addition by fluorescence assay
[14] = Drug metabolism in cynomolgus monkey urine assessed as glucuronidation; type: ADME, tissue-based, Macaca fascicularis
[15] = Oral bioavailability in beagle dog at 1 mg/kg; type: ADME, organism-based, Canis lupus familiaris; conditions: in vivo
[16] = system: Hepatocyte; test: Drug metabolism in human hepatocytes assessed as methyl oxidation; type: ADME, cell-based
[17] = Drug metabolism in cynomolgus monkey hepatocytes assessed as methyl oxidation; type: ADME, cell-based, Macaca fascicularis, Hepatocyte
[18] = target: Cytochrome P450 3A4 (Homo sapiens, UniProt P08684); test: Inhibition of CYP3A4 (unknown origin); type: ADME
[19] = target: T1, Cytochrome P450 1A2 (Homo sapiens, UniProt P05177); test: Inhibition of CYP1A2 (unknown origin); type: ADME
T1 sequence (P05177 whole entry): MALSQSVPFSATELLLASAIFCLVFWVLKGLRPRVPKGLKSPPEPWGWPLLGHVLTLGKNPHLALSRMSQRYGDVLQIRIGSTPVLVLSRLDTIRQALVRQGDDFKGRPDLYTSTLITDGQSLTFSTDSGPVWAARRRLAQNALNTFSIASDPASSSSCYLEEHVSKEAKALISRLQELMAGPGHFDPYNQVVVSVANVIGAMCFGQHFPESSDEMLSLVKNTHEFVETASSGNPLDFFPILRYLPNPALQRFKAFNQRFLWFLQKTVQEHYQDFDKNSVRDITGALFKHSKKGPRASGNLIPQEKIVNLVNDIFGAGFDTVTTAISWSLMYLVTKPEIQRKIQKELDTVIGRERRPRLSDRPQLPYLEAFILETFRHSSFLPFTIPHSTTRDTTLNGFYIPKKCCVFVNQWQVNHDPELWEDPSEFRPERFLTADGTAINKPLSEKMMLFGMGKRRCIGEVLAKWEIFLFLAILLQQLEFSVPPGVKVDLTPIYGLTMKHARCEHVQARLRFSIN

[20] = Drug metabolism in cynomolgus monkey hepatocytes assessed as sulfate conjugation; type: ADME, cell-based, Macaca fascicularis, Hepatocyte
[21] = Drug metabolism in cynomolgus monkey urine assessed as methyl oxidation; type: ADME, tissue-based, Macaca fascicularis
[22] = system: Cynomolgus monkey; test: Nephrotoxicity in cynomolgus monkey at 50 to 1000 mg/kg/day, po administered for 14 days; type: toxicity, organism-based, Macaca fascicularis; conditions: in vivo, 336 h
[23] = Drug metabolism in cynomolgus monkey urine assessed as demethylation; type: ADME, tissue-based, Macaca fascicularis
[24] = Oral bioavailability in cynomolgus monkey at 1 mg/kg; type: ADME, organism-based, Macaca fascicularis; conditions: in vivo
[25] = system: Hepatocyte; test: Drug metabolism in human hepatocytes assessed as sulfate conjugation; type: ADME, cell-based
[26] = Clearance in cynomolgus monkey at 1 mg/kg, po and iv; type: ADME, organism-based, Macaca fascicularis; conditions: in vivo
[27] = Intrinsic clearance in human liver microsomes measured over 40 mins by HPLC/MS analysis; type: ADME; conditions: read-out: CLH
[28] = Drug metabolism in cynomolgus monkey hepatocytes assessed as (2S,5S)-5-((5-(6-((4-Fluoro-3-methoxybenzyl)carbamoyl)-2-methylpyrimidin-4-yl)-2H-tetrazol-2-yl)methyl)-1,4-dioxane-2-carboxylic acid formation; type: ADME, cell-based, Macaca fascicularis, Hepatocyte
[29] = system: Rattus norvegicus; test: Drug metabolism in Sprague-Dawley rat assessed as (2S,5S)-5-((5-(6-((4-Fluoro-3-methoxybenzyl)carbamoyl)-2-methylpyrimidin-4-yl)-2H-tetrazol-2-yl)methyl)-1,4-dioxane-2-carboxylic acid formation at 1 mg/kg, po; type: ADME, organism-based; conditions: in vivo
[30] = target: Cytochrome P450 2D6 (Homo sapiens, UniProt P10635); test: Inhibition of CYP2D6 (unknown origin); type: ADME
[31] = Drug metabolism in cynomolgus monkey urine assessed as sulfate conjugation; type: ADME, Macaca fascicularis

Stromelysin-1, sequence (P08254 whole entry, the tested form may be a part): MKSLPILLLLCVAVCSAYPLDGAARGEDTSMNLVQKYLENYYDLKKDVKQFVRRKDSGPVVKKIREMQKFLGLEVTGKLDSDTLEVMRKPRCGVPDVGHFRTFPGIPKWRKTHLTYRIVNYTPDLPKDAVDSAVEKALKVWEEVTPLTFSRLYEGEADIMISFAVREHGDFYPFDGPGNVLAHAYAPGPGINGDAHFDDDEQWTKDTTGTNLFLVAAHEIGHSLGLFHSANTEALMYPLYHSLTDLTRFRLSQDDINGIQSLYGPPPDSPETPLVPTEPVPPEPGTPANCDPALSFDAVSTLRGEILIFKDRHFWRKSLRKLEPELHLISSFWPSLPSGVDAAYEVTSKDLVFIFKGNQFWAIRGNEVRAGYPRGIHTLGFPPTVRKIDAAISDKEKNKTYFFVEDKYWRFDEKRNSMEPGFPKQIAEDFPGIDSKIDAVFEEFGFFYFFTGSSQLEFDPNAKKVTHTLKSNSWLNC
Cytochrome P450 2C9, sequence (P11712 whole entry): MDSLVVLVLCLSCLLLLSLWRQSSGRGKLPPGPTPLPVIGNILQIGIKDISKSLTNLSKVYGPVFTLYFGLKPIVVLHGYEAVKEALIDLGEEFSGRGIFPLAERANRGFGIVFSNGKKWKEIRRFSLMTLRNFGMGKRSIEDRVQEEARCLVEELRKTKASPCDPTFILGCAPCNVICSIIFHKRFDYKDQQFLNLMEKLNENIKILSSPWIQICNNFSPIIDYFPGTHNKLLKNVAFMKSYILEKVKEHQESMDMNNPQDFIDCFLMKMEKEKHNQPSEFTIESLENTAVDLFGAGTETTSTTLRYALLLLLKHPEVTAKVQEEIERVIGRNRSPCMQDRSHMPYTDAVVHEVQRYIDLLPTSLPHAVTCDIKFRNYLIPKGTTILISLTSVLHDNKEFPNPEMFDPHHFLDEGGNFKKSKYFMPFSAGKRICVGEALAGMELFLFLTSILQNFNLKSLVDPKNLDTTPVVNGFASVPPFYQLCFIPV
Cytochrome P450 2D6, sequence (P10635 whole entry): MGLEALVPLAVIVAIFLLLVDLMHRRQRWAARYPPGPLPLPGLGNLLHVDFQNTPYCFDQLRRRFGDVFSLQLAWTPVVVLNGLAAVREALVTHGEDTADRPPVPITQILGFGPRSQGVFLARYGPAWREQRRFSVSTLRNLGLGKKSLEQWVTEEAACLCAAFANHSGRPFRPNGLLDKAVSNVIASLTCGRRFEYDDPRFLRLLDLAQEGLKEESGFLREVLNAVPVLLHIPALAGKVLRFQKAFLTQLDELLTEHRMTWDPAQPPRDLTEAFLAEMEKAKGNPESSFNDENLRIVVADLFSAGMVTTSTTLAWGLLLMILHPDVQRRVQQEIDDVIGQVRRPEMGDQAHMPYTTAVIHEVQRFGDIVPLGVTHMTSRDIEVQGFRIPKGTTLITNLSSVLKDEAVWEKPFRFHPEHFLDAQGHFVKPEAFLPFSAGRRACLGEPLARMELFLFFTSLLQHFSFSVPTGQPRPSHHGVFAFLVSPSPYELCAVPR
Cytochrome P450 3A4, sequence (P08684 whole entry): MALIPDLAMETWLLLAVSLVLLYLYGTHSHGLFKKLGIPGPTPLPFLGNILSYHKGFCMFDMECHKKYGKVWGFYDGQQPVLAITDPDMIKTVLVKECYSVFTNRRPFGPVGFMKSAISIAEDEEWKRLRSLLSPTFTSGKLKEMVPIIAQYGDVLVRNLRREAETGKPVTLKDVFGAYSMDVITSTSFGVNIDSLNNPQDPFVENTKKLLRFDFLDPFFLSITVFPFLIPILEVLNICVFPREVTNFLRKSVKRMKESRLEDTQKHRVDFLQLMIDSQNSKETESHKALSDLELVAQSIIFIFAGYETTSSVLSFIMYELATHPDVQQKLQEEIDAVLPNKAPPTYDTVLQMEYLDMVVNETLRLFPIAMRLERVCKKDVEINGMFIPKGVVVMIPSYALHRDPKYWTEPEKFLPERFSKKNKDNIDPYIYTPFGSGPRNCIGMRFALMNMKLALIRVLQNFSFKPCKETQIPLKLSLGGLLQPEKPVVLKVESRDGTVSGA

Drug metabolism [1]: metabolite_detected
Drug metabolism [2]: metabolite_detected
Drug metabolism [3]: metabolite_detected
Drug metabolism [4]: metabolite_detected
pKi [5]: 8.82
Drug metabolism [6]: metabolite_detected
pIC50 [7]: < 4.52
clearance [8]: 18.2 mL/min/kg
bioavailability [9]: 95%
Drug metabolism [10]: metabolite_detected
clearance [11]: 8.2 mL/min/kg
Drug metabolism [12]: metabolite_detected
pKi [13]: < 5.00
Drug metabolism [14]: metabolite_detected
bioavailability [15]: 64%
Drug metabolism [16]: metabolite_detected
Drug metabolism [17]: metabolite_detected
pIC50 [18]: < 4.52
pIC50 [19]: < 4.52
Drug metabolism [20]: metabolite_detected
Drug metabolism [21]: metabolite_detected
Drug metabolism [23]: metabolite_detected
bioavailability [24]: 88%
Drug metabolism [25]: metabolite_detected
clearance [26]: 2.1 mL/min/kg
microsomal CLint [27]: < 8 µL/min/mg
Drug metabolism [28]: metabolite_detected
Drug metabolism [29]: metabolite_detected
pIC50 [30]: < 4.52
Drug metabolism [31]: metabolite_detected
Structure (SMILES): COc1cc(CNC(=O)c2cc(-c3nnn(C[C@H]4CO[C@H](CO)CO4)n3)nc(C)n2)ccc1F
Activity [22]: Non-toxic
